Patent US20240173440A1, “HIGH PURITY COPPER RADIOPHARMACEUTICAL COMPOSITIONS AND DIAGNOSTIC AND THERAPEUTIC USES THEREOF” (Nuclidium AG, priority 2022, published 2024)

How the values were obtained:
LNCaP xenografts = assay: Quantitative biodistribution in LNCaP xenografted mice; type: in vivo; conditions: for kidney uptake: 1h p.i.
Method: The mice were randomly distributed in groups and euthanized at 1 and at 4 hours post-injection. The organs of interest were collected, rinsed, blotted, weighed and counted in a gamma counter. The results are expressed as percentage of injected activity per gram (% IA/g), representing the mean±standard deviation of n=4-8 mice per group and they were obtained by extrapolation from counts of an aliquot taken from the injected solution as standard.
The biodistribution of the [^61Cu]Cu-NODAGA radiotracers was compared with the reference compounds used in patients under identical experimental conditions. The mice were randomly distributed in groups, injected with the radiotracer under investigation and euthanized at 1 and at 4 hours post-injection of the radiotracers under investigation. The organs of interest were collected, rinsed, blotted, weighed and counted in a gamma counter. The results are expressed as percentage of injected activity per gram (% IA/g), representing the mean±standard deviation of all mice per group and they were obtained by extrapolation from counts of an aliquot taken from the injected solution as standard.

LNCaP cells = assay: In vitro cellular uptake (cell surface and internalized fractions) in LNCaP cells; type: cell-based
Method: The cellular uptake was studied in vitro using intact cells seeded in 6-well plates overnight. On the day of the experiment, the cells were washed and incubated with each of the exemplified [^61Cu]Cu-radiotracer at different time points, either alone or in the presence of a blocking agent to distinguish between specific and non-specific uptake. At each investigated time point, the medium containing the unbound (free) radiotracer was removed, followed by two washing steps with ice-cold phosphate-buffered saline. The cells were then treated 2×5 min with ice-cold glycine solution (0.05 M, pH 2.8) to detach the cell surface-bound radiotracer (acid released). Afterwards, the cells containing the internalized radiotracer were detached with 1 M NaOH at 37° C. and collected for measurement. The amount of specific cell surface-bound and internalized radiotracer is expressed as percentage of the total applied activity, after subtracting the non-specific values.
2-(phosphonomethyl)-pentanedioic acid (2-PMPA, 10 μM) was used to determine non-specific binding (FIG. 14).
Cellular uptake and distribution between cell surface (cell membrane bound) and internalized fractions of ^61Cu-labeled PSMA-I&T constructs versus their ^68Ga counterparts (Table 19). The values are expressed as % of the applied activity and refer to the specific uptake calculated after subtracting the non-specific values (measured in the presence of 10 μM 2-PMPA) from the total values (specific=total−non specific).

[1] = LNCap xenograft mice, 1 h after injection
[2] = LNCap xenograft mice, 4 h after injection

Question: Which results are given for O=C(O)CC[C@H](NC(=O)N[C@@H](CCCCNC(=O)CCCCCCC(=O)NCCCC[C@@H](NC(=O)[C@@H](Cc1ccccc1)NC(=O)[C@@H](Cc1ccc(O)c(I)c1)NC(=O)CC[C@H](C(=O)O)N1CCN2CCN(CC1)CC(=O)[O][61Cu][O]C(=O)C2)C(=O)O)C(=O)O)C(=O)O [[^61Cu]Cu-NODAGA-PSMA-I&T]?
Answer: Biodistribution Adrenal (LNCaP xenografts; 1 hour p.i., LNCaP xenografts): 17.3 ± 3.26 % IA/g; Biodistribution Blood (LNCaP xenografts; 1 hour p.i., LNCaP xenografts): 0.28 ± 0.06 % IA/g; Biodistribution Bone (LNCaP xenografts; 1 hour p.i., LNCaP xenografts): 2.73 ± 0.91 % IA/g; Biodistribution Heart (LNCaP xenografts; 1 hour p.i., LNCaP xenografts): 0.45 ± 0.15 % IA/g; Biodistribution Intestine (LNCaP xenografts; 1 hour p.i., LNCaP xenografts): 2.11 ± 0.78 % IA/g; Biodistribution Kidneys (LNCaP xenografts; 1 hour p.i., LNCaP xenografts): 118 ± 13 % IA/g; Biodistribution LNCaP-tumor (LNCaP xenografts; 1 hour p.i., LNCaP xenografts): 14.0 ± 5.0 % IA/g; Biodistribution Liver (LNCaP xenografts; 1 hour p.i., LNCaP xenografts): 1.02 ± 0.28 % IA/g; Biodistribution Lung (LNCaP xenografts; 1 hour p.i., LNCaP xenografts): 1.69 ± 0.45 % IA/g; Biodistribution Muscle (LNCaP xenografts; 1 hour p.i., LNCaP xenografts): 1.12 ± 0.32 % IA/g; Biodistribution Pancreas (LNCaP xenografts; 1 hour p.i., LNCaP xenografts): 0.97 ± 0.36 % IA/g; Biodistribution Salivary glands (LNCaP xenografts; 1 hour p.i., LNCaP xenografts): 2.01 ± 0.33 % IA/g; Biodistribution Spleen (LNCaP xenografts; 1 hour p.i., LNCaP xenografts): 6.04 ± 1.87 % IA/g; Biodistribution Stomach (LNCaP xenografts; 1 hour p.i., LNCaP xenografts): 1.13 ± 0.20 % IA/g; Ratio Tumor/Blood (LNCaP xenografts; 1 hour p.i., LNCaP xenografts): 55.8 ± 20.0; Ratio Tumor/Kidney (LNCaP xenografts; 1 hour p.i., LNCaP xenografts): 0.13 ± 0.03; Ratio Tumor/Liver (LNCaP xenografts; 1 hour p.i., LNCaP xenografts): 14.9 ± 4.9; Ratio Tumor/Muscles (LNCaP xenografts; 1 hour p.i., LNCaP xenografts): 13.6 ± 3.75; kidney uptake (LNCaP xenografts; injected amount 200 μmol (so in the source)): 96 % IA/g; kidney uptake (LNCaP xenografts; injected amount 400 μmol (so in the source)): 72 % IA/g; kidney uptake (LNCaP xenografts; injected amount 1000 μmol (so in the source)): 34 % IA/g; Biodistribution Adrenal (LNCaP xenografts; 4 hours p.i., LNCaP xenografts): 8.32 ± 2.87 % IA/g; Biodistribution Blood (LNCaP xenografts; 4 hours p.i., LNCaP xenografts): 0.10 ± 0.03 % IA/g; Biodistribution Bone (LNCaP xenografts; 4 hours p.i., LNCaP xenografts): 1.34 ± 0.48 % IA/g; Biodistribution Heart (LNCaP xenografts; 4 hours p.i., LNCaP xenografts): 0.22 ± 0.05 % IA/g; Biodistribution Intestine (LNCaP xenografts; 4 hours p.i., LNCaP xenografts): 1.06 ± 0.50 % IA/g; Biodistribution Kidneys (LNCaP xenografts; 4 hours p.i., LNCaP xenografts): 91 ± 10 % IA/g; Biodistribution LNCaP-tumor (LNCaP xenografts; 4 hours p.i., LNCaP xenografts): 10.7 ± 3.3 % IA/g; Biodistribution Liver (LNCaP xenografts; 4 hours p.i., LNCaP xenografts): 0.72 ± 0.11 % IA/g; Biodistribution Lung (LNCaP xenografts; 4 hours p.i., LNCaP xenografts): 0.74 ± 0.19 % IA/g; Biodistribution Muscle (LNCaP xenografts; 4 hours p.i., LNCaP xenografts): 0.50 ± 0.22 % IA/g; Biodistribution Pancreas (LNCaP xenografts; 4 hours p.i., LNCaP xenografts): 0.45 ± 0.09 % IA/g; Biodistribution Salivary glands (LNCaP xenografts; 4 hours p.i., LNCaP xenografts): 0.52 ± 0.06 % IA/g; Biodistribution Spleen (LNCaP xenografts; 4 hours p.i., LNCaP xenografts): 1.28 ± 0.39 % IA/g; Biodistribution Stomach (LNCaP xenografts; 4 hours p.i., LNCaP xenografts): 0.66 ± 0.15 % IA/g; Ratio Tumor/Blood (LNCaP xenografts; 4 hours p.i., LNCaP xenografts): 109 ± 43; Ratio Tumor/Kidney (LNCaP xenografts; 4 hours p.i., LNCaP xenografts): 0.12 ± 0.03; Ratio Tumor/Liver (LNCaP xenografts; 4 hours p.i., LNCaP xenografts): 15.4 ± 5.7; Ratio Tumor/Muscles (LNCaP xenografts; 4 hours p.i., LNCaP xenografts): 25.4 ± 12.0; tumor uptake (LNCaP xenografts; 4h p.i., LNCaP xenograft mice, comparison with reference radiotracer, p=0.0145): 10.7±3.3 % IA/g; accumulation in tumor and target-positive tissues (LNCaP xenografts; LNCaP xenografts): high accumulation in PSMA-positive (LNCaP) tumor and PSMA-positive tissues; Biodistribution Adrenal (LNCaP xenografts; [1]): 17.3 ± 3.26 % IA/g; Biodistribution Blood (LNCaP xenografts; [1]): 0.28 ± 0.06 % IA/g; Biodistribution Bone (LNCaP xenografts; [1]): 2.73 ± 0.91 % IA/g; Biodistribution Heart (LNCaP xenografts; [1]): 0.45 ± 0.15 % IA/g; Biodistribution Intestine (LNCaP xenografts; [1]): 2.11 ± 0.78 % IA/g; Biodistribution Kidney (LNCaP xenografts; [1]): 118 ± 13 % IA/g; Biodistribution LNCaP-tumor (LNCaP xenografts; [1]): 14.0 ± 5.0 % IA/g; Biodistribution Liver (LNCaP xenografts; [1]): 1.02 ± 0.28 % IA/g; Biodistribution Lung (LNCaP xenografts; [1]): 1.69 ± 0.45 % IA/g; Biodistribution Muscle (LNCaP xenografts; [1]): 1.12 ± 0.32 % IA/g; Biodistribution Pancreas (LNCaP xenografts; [1]): 0.97 ± 0.36 % IA/g; Biodistribution Salivary gland (LNCaP xenografts; [1]): 2.01 ± 0.33 % IA/g; Biodistribution Spleen (LNCaP xenografts; [1]): 6.04 ± 1.87 % IA/g; Biodistribution Stomach (LNCaP xenografts; [1]): 1.13 ± 0.20 % IA/g; Ratio Tumor/Blood (LNCaP xenografts; [1]): 55.8 ± 20.0; Ratio Tumor/Kidney (LNCaP xenografts; [1]): 0.13 ± 0.03; Ratio Tumor/Liver (LNCaP xenografts; [1]): 14.9 ± 4.9; Ratio Tumor/Muscles (LNCaP xenografts; [1]): 13.6 ± 3.75; Biodistribution Adrenal (LNCaP xenografts; [2]): 8.32 ± 2.87 % IA/g; Biodistribution Blood (LNCaP xenografts; [2]): 0.10 ± 0.03 % IA/g; Biodistribution Bone (LNCaP xenografts; [2]): 1.34 ± 0.48 % IA/g; Biodistribution Heart (LNCaP xenografts; [2]): 0.22 ± 0.05 % IA/g; Biodistribution Intestine (LNCaP xenografts; [2]): 1.06 ± 0.50 % IA/g; Biodistribution Kidney (LNCaP xenografts; [2]): 90.9 ± 10.1 % IA/g; Biodistribution LNCaP-tumor (LNCaP xenografts; [2]): 10.7 ± 3.3 % IA/g; Biodistribution Liver (LNCaP xenografts; [2]): 0.72 ± 0.11 % IA/g; Biodistribution Lung (LNCaP xenografts; [2]): 0.74 ± 0.19 % IA/g; Biodistribution Muscle (LNCaP xenografts; [2]): 0.50 ± 0.22 % IA/g; Biodistribution Pancreas (LNCaP xenografts; [2]): 0.45 ± 0.09 % IA/g; Biodistribution Salivary gland (LNCaP xenografts; [2]): 0.52 ± 0.06 % IA/g; Biodistribution Spleen (LNCaP xenografts; [2]): 1.28 ± 0.39 % IA/g; Biodistribution Stomach (LNCaP xenografts; [2]): 0.66 ± 0.15 % IA/g; Ratio Tumor/Blood (LNCaP xenografts; [2]): 109 ± 43; Ratio Tumor/Kidney (LNCaP xenografts; [2]): 0.12 ± 0.03; Ratio Tumor/Liver (LNCaP xenografts; [2]): 15.4 ± 5.7; Ratio Tumor/Muscles (LNCaP xenografts; [2]): 25.4 ± 12.0; Cell surface fraction (LNCaP cells; 5 min, specific uptake): 4.3 ± 0.7 % of the applied activity; Internalized fraction (LNCaP cells; 5 min, specific uptake): 1.2 ± 0.2 % of the applied activity; Cell surface fraction (LNCaP cells; 15 min, specific uptake): 8.2 ± 1.0 % of the applied activity; Internalized fraction (LNCaP cells; 15 min, specific uptake): 3.9 ± 0.4 % of the applied activity; Cell surface fraction (LNCaP cells; 30 min, specific uptake): 10.7 ± 1.0 % of the applied activity; Internalized fraction (LNCaP cells; 30 min, specific uptake): 7.0 ± 1.1 % of the applied activity; Cell surface fraction (LNCaP cells; 60 min, specific uptake): 10.8 ± 1.8 % of the applied activity; Internalized fraction (LNCaP cells; 60 min, specific uptake): 11.7 ± 1.6 % of the applied activity; Cell surface fraction (LNCaP cells; 120 min, specific uptake): 10.2 ± 1.8 % of the applied activity; Internalized fraction (LNCaP cells; 120 min, specific uptake): 17.6 ± 2.8 % of the applied activity; Internalized fraction (LNCaP cells; after 1 h at 37° C.): 12±1.9%; cellular uptake in vitro (LNCaP cells; after 1 h at 37° C.): 26.6±0.9%; PSMA-mediated cellular uptake (LNCaP cells; after 2h at 37° C.): approx. 35%; part of the cellular uptake being internalized (LNCaP cells; after 2h at 37° C.): 50-60%
